pEC50: −log10 of the molar value.
Tests used:
[1] = molecular target: T1, Androgen Receptor (Homo sapiens, UniProt P10275); assay: Androgen Receptor Nuclear Translocation Assay; assay type: cell-based; settings: agonist mode; PathHunter NHRPro cells; 5 h; read-out: AR Nuclear Translocation Assay Agonist Mode EC50
T1 construct: expressed in transfected cells; host or cells: PathHunter NHRPro cell lines
T1 sequence (P10275 1-920): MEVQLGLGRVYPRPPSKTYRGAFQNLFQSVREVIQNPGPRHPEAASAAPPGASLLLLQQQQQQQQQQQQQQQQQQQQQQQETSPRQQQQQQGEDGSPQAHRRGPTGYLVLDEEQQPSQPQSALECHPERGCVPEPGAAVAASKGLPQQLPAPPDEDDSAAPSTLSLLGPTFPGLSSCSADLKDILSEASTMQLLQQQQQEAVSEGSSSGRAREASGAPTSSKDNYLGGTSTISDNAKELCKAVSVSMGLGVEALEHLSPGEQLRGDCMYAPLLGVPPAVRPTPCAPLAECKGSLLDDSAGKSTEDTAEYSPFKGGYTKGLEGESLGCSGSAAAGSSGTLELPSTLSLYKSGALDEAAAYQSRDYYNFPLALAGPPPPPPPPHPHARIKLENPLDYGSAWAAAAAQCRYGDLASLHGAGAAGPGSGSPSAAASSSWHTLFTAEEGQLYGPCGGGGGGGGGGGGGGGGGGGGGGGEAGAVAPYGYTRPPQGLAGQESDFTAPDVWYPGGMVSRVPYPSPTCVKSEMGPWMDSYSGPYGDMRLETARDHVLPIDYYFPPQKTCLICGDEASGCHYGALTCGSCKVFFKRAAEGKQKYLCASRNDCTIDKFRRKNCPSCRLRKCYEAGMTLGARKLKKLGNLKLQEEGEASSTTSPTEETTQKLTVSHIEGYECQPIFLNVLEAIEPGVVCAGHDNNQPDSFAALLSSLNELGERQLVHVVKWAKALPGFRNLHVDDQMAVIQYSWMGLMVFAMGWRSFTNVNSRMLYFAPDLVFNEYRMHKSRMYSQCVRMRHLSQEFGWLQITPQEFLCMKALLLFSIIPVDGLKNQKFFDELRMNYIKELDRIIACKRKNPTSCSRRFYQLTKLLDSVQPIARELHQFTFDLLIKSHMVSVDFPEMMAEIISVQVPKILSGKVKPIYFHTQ
Experimental: Once it was established that the cells were healthy and growing normally, cells were transferred from flasks using trypsin-free cell dissociation buffer and seeded into white walled clear bottom 384-well microplates for compound profiling. For profiling, cells were seeded at a density of 10,000 cells per well in a total volume of 50 μL and were allowed to adhere and recover overnight prior to compound addition. Media contained charcoal-dextran filtered serum to reduce the level of hormones present.
Agonist Format: Intermediate dilution of compound stocks were generated such that 5.5 μL of 10X compound could be added to each well with a final DMSO concentration of 1% of total volume. For profiling compound in agonist mode, the cells were incubated in the presence of compound at 37° C. for 5 h.
Antagonist Format: Agonist dose curves were performed to determine the EC80 value for the following antagonist testing with compounds. 5.5 μL of 10× agonist was added to each well with an equal concentration of vehicle present. EC80 agonist concentration was determined directly from agonist dose curve. For antagonist determination, cells were pre-incubated with antagonist followed by agonist challenge at the EC80 concentration: 5.5 μL of 10× compound added to cells and incubated at 37° C. for 1 h; 5.5 μL of 11× EC80 agonist added to cells and incubated at 37° C. for 5 h.
Signal Detection: After appropriate compound incubation, assay signal was generated through a single addition of 30 μL (50% v/v) of PathHunter Detection reagent cocktail for agonist and antagonist assays respectively followed by 1 h incubation at room temperature. Microplates were read following signal generation with a PerkinElmer ViewLux™ instrument for chemiluminescent signal detection.
Data Analysis: Dose curves in the presence and absence of compound were plotted using GraphPad Prism.

[2] = [14C]RD162′ radio-HPLC metabolite profile in Pooled Rat Plasma; assay type: in vivo, Sprague Dawley rats; settings: [14C]RD162′ 100 mg/kg/day oral, day 7, 4 h
Experimental: The rats were dosed once a day for seven consecutive days; four hours after dosing on the seventh day, plasma was collected from all three rats. The plasma samples were stored at approximately −70° C. or colder.
Positive ion electrospray LC/MS and LC/MS/MS were used to analyze the metabolites.
To prepare the Pooled Rat Plasma for HPLC analysis, approximately 1 g of the plasma sample was combined with acetonitrile (ACN, sample:ACN, 1:3, v:v), vortex mixed, sonicated in cold water, centrifuged, and the supernatants were removed. The extraction was repeated twice and the respective supernatants were combined. […] The combined supernatants were evaporated to dryness and reconstituted in 1 mL of 0.1% formic acid in reverse osmosis (RO) water:ACN: methanol (MeOH, 50:45:5, v:v:v). […] The reconstituted sample was analyzed by HPLC to determine the metabolite profile with fractions collected at 10-second intervals and analyzed by solid scintillation counting.
The prepared samples were analyzed using the following LC/MS/MS conditions: HPLC: Hewlett Packard 1100 series; Mobile Phase: 0.1% formic acid in reverse osmosis water (A) and acetonitrile (B); Column: Agilent Eclipse XDB-C18, 4.6×150 mm, 5 μm; Guard column: Phenomenex Security Guard Cartridge C18, 3×4 mm; Column temperature: 20° C.; Gradient: 20-80% B in 40 min; Flow Rate: 1.5 mL/min.

Compound	pEC50 [1]	% Injected Radioactivity (%) [2] [%]	% Recovered Radioactivity (%) [2] [%]	Peak Area (mV) [2] [mV]	Peak Height (mV) [2] [mV]
Norgesterol [reference compound]	8.54	–	–	–	–
CC1(C)C(=O)N(c2ccc(C#N)c(C(F)(F)F)c2)C(=O)N1c1ccc(C(=O)O)c(F)c1 [(MV), 4-(3-(4-cyano-3-(trifluoromethyl)phenyl)-5,5-dimethyl-2,4-dioxoimidazolidin-1-yl)-2-fluorobenzoic acid]	–	5.76	9.05	308	49

— patent US8524755B2 (priority 2009, dated 2013)
